Experimental data published in ChEMBL document CHEMBL3112541 (Bioorg Med Chem, 2014).

What was measured:
[1] = molecular target: Carbonic anhydrase 9 (Homo sapiens, UniProt Q16790)
Description: Inhibition of human transmembrane carbonic anhydrase 9 by stopped-flow CO2 hydration assay

[2] = molecular target: Carbonic anhydrase 12 (Homo sapiens, UniProt O43570)
Description: Inhibition of human transmembrane carbonic anhydrase 12 by stopped-flow CO2 hydration assay

[3] = molecular target: Carbonic anhydrase 1 (Homo sapiens, UniProt P00915)
Description: Inhibition of human cytosolic carbonic anhydrase 1 by stopped-flow CO2 hydration assay

[4] = molecular target: Carbonic anhydrase 2 (Homo sapiens, UniProt P00918)
Description: Inhibition of human cytosolic carbonic anhydrase 2 by stopped-flow CO2 hydration assay

Chain of Carbonic anhydrase 1 (P00915 whole entry): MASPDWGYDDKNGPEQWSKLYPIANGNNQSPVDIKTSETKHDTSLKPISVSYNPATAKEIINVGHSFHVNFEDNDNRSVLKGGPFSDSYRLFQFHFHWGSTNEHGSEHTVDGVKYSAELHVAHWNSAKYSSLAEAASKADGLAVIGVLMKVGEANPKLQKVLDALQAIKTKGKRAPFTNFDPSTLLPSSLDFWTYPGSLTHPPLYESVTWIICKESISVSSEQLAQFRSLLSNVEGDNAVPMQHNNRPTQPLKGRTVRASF
Chain of Carbonic anhydrase 12 (O43570 whole entry): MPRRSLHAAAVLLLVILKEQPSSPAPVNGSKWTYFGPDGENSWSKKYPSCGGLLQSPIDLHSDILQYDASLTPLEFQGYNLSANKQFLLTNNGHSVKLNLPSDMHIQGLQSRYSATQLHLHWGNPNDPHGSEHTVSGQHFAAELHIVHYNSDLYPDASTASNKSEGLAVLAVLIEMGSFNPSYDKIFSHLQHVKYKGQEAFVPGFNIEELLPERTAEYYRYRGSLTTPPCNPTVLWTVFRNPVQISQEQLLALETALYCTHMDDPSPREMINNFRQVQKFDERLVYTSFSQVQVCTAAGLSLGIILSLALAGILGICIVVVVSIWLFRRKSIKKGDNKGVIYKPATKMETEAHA

SMILES | Ki [1] [µM] | Ki [2] [µM] | Ki [3] [µM] | Ki [4] [µM]
NS(=O)(=O)c1ccc(CN2C(=O)c3ccc([N+](=O)[O-])cc3C2=O)cc1 | 8.84 | – | – | –
NS(=O)(=O)c1ccc(N2C(=O)c3ccc([N+](=O)[O-])cc3C2=O)cc1 | 8.65 | – | – | –
NS(=O)(=O)c1ccc(CN2C(=O)c3cccc([N+](=O)[O-])c3C2=O)cc1 | 0.873 | – | – | –
NS(=O)(=O)c1cccc(N2C(=O)c3cccc([N+](=O)[O-])c3C2=O)c1 | 8.35 | – | – | –
NS(=O)(=O)c1ccccc1N1C(=O)c2cccc([N+](=O)[O-])c2C1=O | 7.82 | > 10 | > 10 | –
NS(=O)(=O)c1ccccc1N1C(=O)c2ccc([N+](=O)[O-])cc2C1=O | > 10 | – | > 10 | > 10
NS(=O)(=O)c1cccc(N2C(=O)c3ccc([N+](=O)[O-])cc3C2=O)c1 | 10 | – | – | –
NS(=O)(=O)c1ccc(CCN2C(=O)c3ccc([N+](=O)[O-])cc3C2=O)cc1 | > 10 | – | – | –
